Results reported in ChEMBL document CHEMBL5050844 (2019).

Experiments:
Assay type in all cases: functional, T cell line
[1] = Induction of anti-CD3 antibodies-stimulated human T cell activation at 8 uM assessed fold increase in IL-2 secretion measured by ELISA assay; note: reference of the scale not given here
[2] = Induction of anti-CD3/CD28 antibodies-stimulated human T cell activation at 0.3 uM assessed fold increase in CD25 expression measured by ELISA assay
[3] = Induction of anti-CD3/CD28 antibodies-stimulated human T cell activation at 1 uM assessed fold increase in CD25 expression measured by ELISA assay
[4] = Induction of anti-CD3/CD28 antibodies-stimulated human T cell activation at 1 uM assessed fold increase in IL-2 secretion measured by ELISA assay
[5] = Induction of anti-CD3 antibodies-stimulated human T cell activation at 8 uM assessed fold increase in CD25 expression measured by ELISA assay; note: reference of the scale not given here
[6] = Induction of anti-CD3 antibodies-stimulated human T cell activation at 1 uM assessed fold increase in IL-2 secretion measured by ELISA assay; note: reference of the scale not given here
[7] = Induction of anti-CD3 antibodies-stimulated human T cell activation at 1 uM assessed fold increase in CD25 expression measured by ELISA assay; note: reference of the scale not given here
[8] = Induction of anti-CD3/CD28 antibodies-stimulated human T cell activation at 0.3 uM assessed fold increase in IL-2 secretion measured by ELISA assay
[9] = Induction of anti-CD3/CD28 antibodies-stimulated human T cell activation at 4 uM assessed fold increase in CD25 expression measured by ELISA assay
[10] = Induction of anti-CD3/CD28 antibodies-stimulated human T cell activation at 4 uM assessed fold increase in IL-2 secretion measured by ELISA assay

SMILES	fold change (FC) [1]	fold change (FC) [2]	fold change (FC) [3]	fold change (FC) [4]	fold change (FC) [5]	fold change (FC) [6]	fold change (FC) [7]	fold change (FC) [8]	fold change (FC) [9]	fold change (FC) [10]
Cn1cnnc1[C@H](F)[C@@](C)(F)c1cccc(N2Cc3c(cc(C4CC4)cc3C(F)(F)F)C2=O)c1 (single isomer, unassigned; 483)	0.051	1.01	1.01	1.01	0.801	0.051	0.601	<=1	1.01	1.01
CNS(=O)(=O)c1cc(C(=O)Nc2cccc([C@H](C)Cc3nncn3C)c2)nc(C(F)(F)F)c1	>=0.201	1.01	1.01	1.01	>=1.001	0.151	0.801	1.01	1.01	<=1
C[C@H](Cc1nncn1C)c1cc(NCCO)nc(N2Cc3c(cccc3C(F)(F)F)C2=O)c1	0.151	1.01	1.01	1.01	>=1.001	0.051	0.601	1.01	1.01	2.51
C[C@H](Cc1nncn1C)c1cc(N[C@@H](C)CO)nc(N2Cc3c(cccc3C(F)(F)F)C2=O)c1	0.151	1.01	1.01	1.01	>=1.001	0.051	0.601	1.01	1.01	2.51
C[C@H](Cc1nncn1C)c1ccnc(N2Cc3c(cccc3C(F)(F)F)C2=O)c1	<=0.05	1.01	1.01	<=1	<=0.6	<=0.05	<=0.6	<=1	1.31	1.01
Cc1c[nH]nc1C[C@H](C)c1cccc(N2Cc3c(cccc3C(F)(F)F)C2=O)c1 (single isomer, unassigned)	0.151	1.01	1.01	1.01	0.801	0.101	0.601	1.01	1.01	1.01
C[C@H](Cc1nncn1C)c1cc(NC2COC2)cc(N2Cc3c(cccc3C(F)(F)F)C2=O)c1	0.051	1.01	1.01	1.01	0.801	0.051	0.601	<=1	1.01	1.01
Cn1cnnc1C(F)(F)[C@](C)(F)c1cccc(N2Cc3c(cc(CN4CC(C#N)C4)cc3C(F)(F)F)C2=O)c1	0.101	1.01	1.01	2.51	>=1.001	0.051	0.801	1.01	1.01	5
Cn1cnnc1[C@@H]1CC[C@@H]1c1cccc(N2Cc3c(cccc3C(F)(F)F)C2=O)c1	>=0.201	1.01	1.01	>=7.5	0.801	0.101	0.601	5	1.01	>=7.5
C[C@H](Sc1nncn1C)c1ccc(F)c(NC(=O)c2cccc(C(F)(F)F)n2)c1	0.051	<=1	1.01	1.01	<=0.6	<=0.05	<=0.6	1.01	1.01	2.51
CC(Cc1nncn1C)c1cc(C2CCC2)cc(N2Cc3c(cccc3C(F)(F)F)C2=O)c1 (stereo not given)	0.051	1.01	1.01	1.01	0.801	0.051	0.601	1.01	1.01	1.01
C[C@H](Sc1nncn1C)c1cccc(NC(=O)c2cccc(S(C)(=O)=O)n2)c1	<=0.05	1.01	1.01	1.01	<=0.6	<=0.05	<=0.6	<=1	1.01	1.01
C[C@H](Cc1nncn1C)c1cccc(NC(=O)c2[nH]nc3c2CCCC3)c1	0.051	1.01	1.01	1.01	0.801	0.051	0.601	1.01	1.01	1.01
C[C@H](Cc1nncn1C)c1cccc(NC(=O)c2cc(C(C)(C)O)cc(C(F)(F)F)n2)c1	>=0.201	1.01	1.01	2.51	>=1.001	0.101	0.801	1.01	1.01	5
C[C@H](Cc1nncn1C)c1cc(NC2CCOC2)nc(N2Cc3c(cccc3C(F)(F)F)C2=O)c1 (single isomer, unassigned)	0.151	<=1	1.01	1.01	0.801	0.051	0.601	1.01	1.01	1.01
C[C@H](Cc1nncn1C)c1cccc(NC(=O)c2cc3cccn3cn2)c1	0.101	1.01	1.01	1.01	0.801	0.051	0.601	1.01	1.01	1.01
C[C@H](Sc1nncn1C)c1cccc(NC(=O)c2ccnc(C(F)(F)F)n2)c1	0.051	1.01	1.01	1.01	0.801	<=0.05	0.601	1.01	1.01	1.01
COc1nc(C(=O)Nc2cccc([C@H](C)Sc3nncn3C)c2)cc2ccccc12	0.051	<=1	1.01	5	0.801	<=0.05	<=0.6	2.51	1.01	>=7.5
Cc1ccc(C(=O)Nc2cc([C@H](C)Sc3nncn3C)ccn2)nc1C1CC1	<=0.05	<=1	<=1	2.51	<=0.6	<=0.05	<=0.6	2.51	1.01	5
C[C@H](Sc1nncn1C)c1cccc(NC(=O)c2cc3ccccc3cn2)c1	0.051	1.01	1.01	1.01	<=0.6	<=0.05	<=0.6	1.01	1.01	1.01
C[C@H](Cc1nncn1C)c1cccc(NC(=O)c2coc(C(F)(F)F)n2)c1	0.101	1.01	1.01	1.01	0.801	0.051	0.601	<=1	1.01	1.01
Cc1cnnn1C[C@@H](C)c1cccc(NC(=O)c2cccc(C(F)(F)F)n2)c1	0.151	<=1	1.01	1.01	0.801	0.051	0.601	1.01	1.01	2.51
